{"source": "patent US20220047617A1", "about": "“Nucleic acid nanocarrier drug, preparation method, pharmaceutical composition and use thereof” (BAI YAO ZHI DA (BEIJING) NANOBIO TECHNOLOGY CO., LTD., priority 2018, published 2022)", "molecules": {"B1": {"name": "R-20: extension fragment deformation+core short-sequence RNA nanoparticles, strands SEQ ID NO: 135-137, a-strand 3′-biotin, 2′F (nucleic acid)", "chain 1": "GCGGCGAGCGGCGACGAGCGUUGCGGCCGGAGGCCGG", "chain 2": "CCGGCCUCCGGCCGCUUCGCCGCCAGCCGCC", "chain 3": "GGCGGCAGGCGGCCAUAGCCGUCGCCGCUCGCCGC", "modifications": "RNA nanoparticle strands, 2'-fluoro modified, a-strand 3'-biotin, positions not given here"}}, "key": {"U87MG cells": {"test_system": "U87MG cells", "experiment": "Cytotoxicity in U87MG cells (CellTiter-Glo), Embodiment 8", "format": "cell-based", "procedure": "Cytotoxicity Research of RNAh-Bio-670-Paclitaxel Nanoparticles in U87MG Cells\n1) Cell Culturing and Plating\nU87MG cells are cultured at 37 DEG C. and 5% CO2 in the EMEM basal medium in which 10% FBS and 1% PS are respectively added. The cell density used in the experiment is above 80%. The cells are collected, and centrifuged at 1000 rpm for 4 minutes, the medium is resuspended, the cell concentration is adjusted, and it is added to the 96-well plate in a volume of 5000 cells per 90 μL, and each group has 4 replicate wells.\n2) Gradient Drug Concentration Preparation and Administration […]\nMedium (untreated) control: only cells without compound treatment\nBlank control: without cells, used for instrument zero calibration\n3) Cell Culture after Administration\n4) Cells Treated by Detection Kit\nThe well plate is brought to a room temperature in advance and stands for 30 minutes. 100 μL of a CellTiter-Glo® reagent is added to each well of the well plate and mixed for 2 minutes on a shaker to promote cell lysis. The Perkin Elmer Envision 2104 Multilabel Reader is used to read values and the values are recorded.\n5) Experiment Data Acquisition and Processing\nThe acquired experiment data is analyzed and processed by using excel software, and GraphPad Prism 5 software is used for curve fitting analysis."}, "SKOV3 cells": {"test_system": "SKOV3 cells", "experiment": "Cytotoxicity in SKOV3 cells (CellTiter 96 AQueous One Solution), Embodiment 9", "format": "cell-based", "settings": "Homo sapiens, SK-OV-3; SKOV3, 96 hours", "method": "2) adjusting the cell density to 2.22×10^4/mL with a growth medium;\n3) planting 90 μL/well of cell suspension into the 96-well plate, herein the number of cells per well in the plate is 2000;\n4) placing the planted cell plate in the incubator at 37 DEG C. and incubating overnight;\n5) performing 3.16-fold gradient dilution on the compound at 9 concentration points;\n7) placing the cell culture plate in the incubator and continuously incubating for 96 hours;\n8) placing the CellTiter 96® AQueous One Solution reagent at the room temperature and thawing for 90 minutes or thawing in a water bath at 37 DEG C., and placing at the room temperature and equilibrating for 30 minutes;\n9) adding 20 μL/well of the CellTiter 96® AQueous One Solution reagent to the cell culture plate;\n10) placing the cell culture plate in the incubator at 37 DEG C. and continuously incubating for 3 hours;\n11) using a microplate reader to read a OD490 value of each well in the cell plate; and 12) data processing and analysis.\nGraphPad Prism 5.0 software is used to process data graphically. In order to calculate the IC50, “S”-shaped nonlinear regression analysis is performed on the data to match an appropriate dosage-effect curve. A calculation formula of the survival rate is as follows, the IC50 may be automatically calculated in GraphPad Prism 5.0. […]"}, "[1]": {"experiment": "Particle size measurement (DLS hydrodynamic size)", "format": "physicochemical", "source_text": "(3) Particle Size Measurement\n1. Preparing a potential sample (conventional-sequence DNA self-assembly product D-7) and putting into a sample pool, opening a sample pool cover of an instrument, and placing the instrument;\n2. opening software, and clicking a menu, so a manual measurement parameter setting dialog box appears;\n3. setting a software detection parameter; and then\n4. clicking Ok to complete the settings, when a measurement dialog box appears, clicking Start to start, a DLS measurement value result of a hydrodynamic size of the self-assembly product D-7 is shown below in Table 40:\n(3) Particle size measurement\n(2) opening software, and clicking a menu, so a manual measurement parameter setting dialog box appears;\n(3) setting a software detection parameter; and then"}, "[2]": {"experiment": "TM value detection by solubility curve method (SYBR Green I)", "format": "physicochemical", "settings": "extension fragment deformation+core short-sequence RNA nanoparticles; temperature at ½ RFUmax in 20 to 90 DEG C. taken as Tm", "procedure": "A solubility curve method is used to detect TM values of the 7 groups of the extension fragment deformation+core short-sequence RNA nanoparticles, and the samples are consistent with the potential samples.\n(1) After the sample is diluted with ultrapure water, 5 μg of the diluted sample is mixed with 2 μL of SYBR Green I dye (diluted by 1:200), a final volume is 20 μL, and the dilution concentration is as follows:\n(2) It is incubated for 30 min in the dark at a room temperature; and\n(3) On-machine detection is performed, a program is set to start at 20 DEG C., the temperature rises per second from 0.1 DEG C. to 95 DEG C., and reading is performed every 5 s.\nDue to the particularity of the RNA samples, a temperature corresponding to ½ RFUmax in a range of 20 to 90 DEG C. is used as a sample Tm value in this test.\nA solubility curve method is used to detect TM values of the 7 groups of the extension fragment deformation+core short-sequence DNA nanoparticles, and the samples are consistent with the potential samples."}}}
{"molecule": "CC(=O)O[C@H]1C(=O)[C@@]2(C)[C@H]([C@H](OC(=O)c3ccccc3)[C@]3(O)C[C@H](OC(=O)[C@H](O)[C@@H](NC(=O)c4ccccc4)c4ccccc4)C(C)=C1C3(C)C)[C@]1(OC(C)=O)CO[C@@H]1C[C@@H]2O", "note": "[Paclitaxel, paclitaxel]", "values": [{"measurement": "inhibition rates of the drugs to the cells", "setting": "U87MG cells; drug concentration is 10 μM", "value": 23.77, "unit": "%"}, {"measurement": "cell survival rate (%)", "setting": "U87MG cells; treatment time 72 h, 200 nM of each sample per well (method)", "value": 56.74, "unit": "%"}, {"measurement": "IC50", "setting": "SKOV3 cells", "value": "< 1", "unit": "nM"}]}
{"molecule": "B1", "values": [{"measurement": "Mean particle size (nm)", "setting": "[1]", "value": 7.110, "unit": "nm"}, {"measurement": "TM value", "setting": "[2]", "value": 59.5, "unit": "°C"}]}
